Data as given in ChEMBL document CHEMBL5113401, “Novel 1,3,4-oxadiazole chalcogen analogues: Synthesis and cytotoxic activity” (Eur J Med Chem, 2022).
Activity calls are given as the source filed them. The calls are words filed in the database; no cut-off is given here.

What was measured:
HeLa [1] = experiment: Induction of cell cycle arrest in human HeLa cells assessed as accumulation of cells at G1 phase at 1 uM incubated for 12 hrs by FACS flow cytometry analysis (reference value: 69.94 %); type: functional
PC-3 [2] = experiment: Induction of cell cycle arrest in human PC-3 cells assessed as accumulation of cells at G2/M phase at 1 uM incubated for 18 hrs by FACS flow cytometry analysis (reference value: 20.74 %); type: functional
HeLa [3] = experiment: Antiproliferative activity against human HeLa cells assessed as inhibition of cell growth incubated for 48 hrs by XTT assay; type: functional, cell-based
Tubulin (Homo sapiens) [4] = molecular target: T1, Tubulin (Homo sapiens) (UniProt P68371+Q9H4B7+P0DPH7+P68366+Q13509+Q71U36+P04350+Q3ZCM7+P07437+P68363+Q9BQE3+Q6PEY2+Q13885+Q9BVA1+Q9BUF5); experiment: Inhibition of tubulin polymerization in human HeLa cells assessed as abnormal microtubule network at 0.5 uM incubated for 6 hrs by DAPI staining based fluorescence microscopic analysis; type: cell-based
PC-3 [5] = experiment: Induction of cell cycle arrest in human PC-3 cells assessed as accumulation of cells at G1 phase at 1 uM incubated for 12 hrs by FACS flow cytometry analysis (reference value: 44.2 +/- 2.01 %); type: functional
HeLa [6] = experiment: Induction of cell cycle arrest in human HeLa cells assessed as accumulation of cells at S phase at 1 uM incubated for 12 hrs by FACS flow cytometry analysis (reference value: 17.41 %); type: functional
PC-3 [7] = experiment: Induction of cell cycle arrest in human PC-3 cells assessed as accumulation of cells at S phase at 1 uM incubated for 6 hrs by FACS flow cytometry analysis (reference value: 35.06 +/- 1.85 %); type: functional
PC-3 [8] = experiment: Induction of cell cycle arrest in human PC-3 cells assessed as accumulation of cells at G2/M phase at 1 uM incubated for 6 hrs by FACS flow cytometry analysis (reference value: 20.74 +/- 1.93 %); type: functional
HeLa [9] = experiment: Induction of apoptosis in human HeLa cells assessed as viable cells at 1 uM incubated for 24 hrs by Annexin V-FITC/7-AAD staining based flow cytometric analysis (reference value: 85.6 +/- 1.061%); type: functional; conditions: read-out: Activity
MCF7 = experiment: Antiproliferative activity against human MCF7 cells assessed as inhibition of cell growth incubated for 48 hrs by XTT assay; type: functional, cell-based; conditions: MCF7, 48 h
HeLa [10] = experiment: Induction of cell cycle arrest in human HeLa cells assessed as accumulation of cells at G2/M phase at 1 uM incubated for 12 hrs by FACS flow cytometry analysis (reference value: 12.66 %); type: functional
Tubulin (Homo sapiens) [11] = molecular target: T1, Tubulin (Homo sapiens); experiment: Inhibition of tubulin polymerization in human HeLa cells assessed as irregular cell morphology at 0.5 uM incubated for 6 hrs by DAPI staining based fluorescence microscopic analysis
HeLa [12] = experiment: Induction of cell cycle arrest in human HeLa cells assessed as accumulation of cells at G1 phase at 1 uM incubated for 6 hrs by FACS flow cytometry analysis (reference value: 69.94 +/- 1.71 %); type: functional
HeLa [13] = experiment: Induction of cell cycle arrest in human HeLa cells assessed as accumulation of cells at S phase at 1 uM incubated for 18 hrs by FACS flow cytometry analysis (reference value: 17.41 +/- 1.16 %); type: functional
HeLa [14] = experiment: Induction of cell cycle arrest in human HeLa cells assessed as accumulation of cells at G2/M phase at 1 uM incubated for 6 hrs by FACS flow cytometry analysis (reference value: 12.66 +/- 0.88 %); type: functional
HeLa [15] = experiment: Induction of apoptosis in human HeLa cells assessed as dead cells at 1 uM incubated for 24 hrs by Annexin V-FITC/7-AAD staining based flow cytometric analysis (reference value: 0.6 +/- 0.707 %); type: functional
PC-3 [16] = experiment: Antiproliferative activity against human PC-3 cells assessed as inhibition of cell growth incubated for 48 hrs by XTT assay; type: functional, cell-based; conditions: PC-3, 48 h
PC-3 [17] = experiment: Induction of cell cycle arrest in human PC-3 cells assessed as accumulation of cells at S phase at 1 uM incubated for 18 hrs by FACS flow cytometry analysis (reference value: 35.06 %); type: functional
Tubulin (Homo sapiens) [18] = molecular target: T1, Tubulin (Homo sapiens); experiment: Inhibition of tubulin polymerization in human HeLa cells assessed as aberrations in mitotic spindle and nucleus at 0.5 uM incubated for 6 hrs by DAPI staining based fluorescence microscopic analysis; type: cell-based
PC-3 [19] = experiment: Induction of cell cycle arrest in human PC-3 cells assessed as accumulation of cells at G2/M phase at 1 uM incubated for 12 hrs by FACS flow cytometry analysis (reference value: 20.74 +/- 1.95 %); type: functional
HeLa [20] = experiment: Inhibition of colony formation in human HeLa cells at IC50 incubated for 2 weeks with culture medium replacement for every 3 days by crystal violet staining based analysis; type: functional, cell-based
PC-3 [21] = experiment: Induction of cell cycle arrest in human PC-3 cells assessed as accumulation of cells at S phase at 1 uM incubated for 12 hrs by FACS flow cytometry analysis (reference value: 35.06 +/- 1.36 %); type: functional
HFF-1 = experiment: Cytotoxicity against HFF-1 cells assessed as reduction in cell viability at 1 to 2 uM incubated for 48 hrs by XTT assay; type: toxicity, cell-based; conditions: human, hff-1, 48 h, dose 1-2 µM
HeLa [22] = experiment: Induction of cell cycle arrest in human HeLa cells assessed as accumulation of cells at G1 phase at 1 uM incubated for 18 hrs by FACS flow cytometry analysis (reference value: 69.94 +/- 1.25 %); type: functional
PC-3 [23] = experiment: Inhibition of colony formation in human PC-3 cells at IC50 incubated for 2 weeks with culture medium replacement for every 3 days by crystal violet staining based analysis; type: functional, cell-based
HeLa [24] = experiment: Induction of apoptosis in human HeLa cells assessed as early apoptotic cells at 1 uM incubated for 24 hrs by Annexin V-FITC/7-AAD staining based flow cytometric analysis (reference value: 2.7 +/- 0.424 %); type: functional
PC-3 [25] = experiment: Induction of cell cycle arrest in human PC-3 cells assessed as accumulation of cells at G1 phase at 1 uM incubated for 6 hrs by FACS flow cytometry analysis (reference value: 44.2 +/- 2.21 %); type: functional
HeLa [26] = experiment: Induction of apoptosis in human HeLa cells assessed as late apoptotic cells at 1 uM incubated for 24 hrs by Annexin V-FITC/7-AAD staining based flow cytometric analysis (reference value: 11.1 +/- 0.778 %); type: functional
HeLa [27] = experiment: Induction of cell cycle arrest in human HeLa cells assessed as accumulation of cells at G2/M phase at 1 uM incubated for 18 hrs by FACS flow cytometry analysis (reference value: 12.66 +/- 0.92 %); type: functional
NB1 = experiment: Cytotoxicity against human NB1 cells immortalized with hTERT plasmid assessed as reduction in cell viability at 1 to 2 uM incubated for 48 hrs by XTT assay; type: toxicity, cell-based; conditions: nb1, 48 h, dose 1-2 µM
PC-3 [28] = experiment: Induction of cell cycle arrest in human PC-3 cells assessed as accumulation of cells at G1 phase at 1 uM incubated for 18 hrs by FACS flow cytometry analysis (reference value: 44.2 %); type: functional
HeLa [29] = experiment: Induction of cell cycle arrest in human HeLa cells assessed as accumulation of cells at S phase at 1 uM incubated for 6 hrs by FACS flow cytometry analysis (reference value: 17.41 +/- 0.96 %); type: functional

**Q.** With `Cc1[nH]c2c(c1-c1nnc(-c3ccccc3)o1)Cc1ccccc1-2` as the molecule, how does the Activity (HeLa [1]) read?
**A.** Its Activity is 3.54%.

**Q.** What about the Activity (PC-3 [2]) of the same molecule?
**A.** The Activity was 92.97%.

**Q.** What about the IC50 (HeLa [3]) of the same molecule?
**A.** Its IC50 is 68 nM.

**Q.** And the inhibition (Tubulin (Homo sapiens) [4])?
**A.** The inhibition was “Active”.

**Q.** And the Activity (PC-3 [5])?
**A.** The Activity was 0%.

**Q.** And the Activity (HeLa [6])?
**A.** The Activity was 55.05%.

**Q.** And the Activity (PC-3 [7])?
**A.** Its Activity is 53.05%.

**Q.** And the Activity (PC-3 [8])?
**A.** Its Activity is 38.61%.

**Q.** And the viability at 1 µM (HeLa [9])?
**A.** The viability at 1 µM was 62.2%.

**Q.** And the IC50 (MCF7)?
**A.** The IC50 was 1720 nM.

**Q.** What about the Activity (HeLa [10]) of the same molecule?
**A.** The Activity was 41.41%.

**Q.** And the inhibition (Tubulin (Homo sapiens) [11])?
**A.** The inhibition was “Active”.

**Q.** And the Activity (HeLa [12])?
**A.** The Activity was 16.81%.

**Q.** And the Activity (HeLa [13])?
**A.** Its Activity is 8.43%.

**Q.** And the Activity (HeLa [14])?
**A.** Its Activity is 20.86%.

**Q.** And the Activity (HeLa [15])?
**A.** Its Activity is 6.4%.

**Q.** What about the IC50 (PC-3 [16]) of the same molecule?
**A.** The IC50 was 1660 nM.

**Q.** And the Activity (PC-3 [17])?
**A.** The Activity was 5.86%.

**Q.** And the inhibition (Tubulin (Homo sapiens) [18])?
**A.** Its inhibition is “Active”.

**Q.** And the Activity (PC-3 [19])?
**A.** The Activity was 81.52%.

**Q.** And the inhibition (HeLa [20])?
**A.** Its inhibition is “Active”.

**Q.** What about the Activity (PC-3 [21]) of the same molecule?
**A.** The Activity was 18.48%.

**Q.** What about the Activity (HFF-1) of the same molecule?
**A.** The Activity was “Non-Toxic”.

**Q.** What about the Activity (HeLa [22]) of the same molecule?
**A.** Its Activity is 1.48%.

**Q.** And the inhibition (PC-3 [23])?
**A.** Its inhibition is “Active”.

**Q.** And the Activity (HeLa [24])?
**A.** Its Activity is 2.9%.

**Q.** What about the Activity (PC-3 [25]) of the same molecule?
**A.** The Activity was 8.34%.

**Q.** And the Activity (HeLa [26])?
**A.** Its Activity is 28.5%.

**Q.** What about the Activity (HeLa [27]) of the same molecule?
**A.** The Activity was 90.18%.

**Q.** And the Activity (NB1)?
**A.** Its Activity is “Non-Toxic”.

**Q.** And the Activity (PC-3 [28])?
**A.** The Activity was 1.71%.

**Q.** And the Activity (HeLa [29])?
**A.** The Activity was 63.32%.
